Test results taken from US20210015793A1, “COMPOUNDS FOR TREATING CNS- AND NEURODEGENERATIVE DISEASES” (ETH ZURICH, priority 2018, published 2021).
“Also recorded” adds a separate entry of the source.

System: Tg2576 AD mice
Assay: Hippocampal hyperphosphorylated PHF tau by direct binding assay with [125I]-labeled AT8 antibody, Tg2576 mice subjected to CUMS
Assay type: in vivo, mouse
Details: 15-month-old Tg2576 mice, 3 months of CUMS with treatment, vs untreated stressed controls
Excerpt: For a genetic model of familial AD (FAD), Tg2576 mice (Taconic Biosciences, Rensselaer, N.Y., USA) were used with neuron-specific overexpression of human APPSwe, i.e the Swedish mutation of APP695 isolated from a Swedish family with FAD featuring the double mutation K670N/M671L (Hsiao et al., Science 274, 99-103 (1996)). As a genetic model of tauopathy, the Tg-TauP301L mice (Model 2508, Taconic Biosciences, Rensselaer, N.Y., USA) with neuron-specific expression of the most common FTDP-17 (frontotemporal dementia and parkinsonism linked to chromosome 17) mutation (Lewis et al., Nature Genetics 25, 402-405 (2000)) were used. […]
Neuronal cell loss and hyperphosphorylated PHF Tau were determined in hippocampi of 15 months-old Tg2576 mice, which were treated without or with Compound-1 and Compound-4 for three months during the neurodegeneration-enhancing CUMS (chronic unpredictable mild stress) protocol. Neuronal cell loss was determined with crude homogenates of dissected hippocampi by direct binding assay with the neuron-specific [125]-labeled anti-NeuN antibody (MAB377, clone A60, EMD Millipore, Merck KGaA, Darmstadt, Germany). Similarly, the neuronal cell loss-causing PHF tau hyperphosphorylation was quantified with [125]-labeled AT8 antibody. […]

Structure (SMILES): O=C(C1=C(O)C(c2ccccc2)N(c2ccc3c(c2)OCO3)C1=O)C1CC1 (centres unmarked) [Compound-1, 1-(1,3-benzodioxol-5-yl)-4-(cyclopropane-carbonyl)-3-hydroxy-2-phenyl-2H-pyrrol-5-one]
- hippocampal content of hyperphosphorylated PHF Tau (AT8 binding): retarded; also recorded: significantly decreased hippocampal content of hyperphosphorylated PHF Tau

Structure (SMILES): O=C(C1=C(O)C(c2ccc(F)cc2)N(c2ccc3c(c2)OCO3)C1=O)C1CC1 (centres unmarked) [Compound-1F, 1-(1,3-Benzodioxol-5-yl)-4-(cyclopropanecarbonyl)-2-(4-fluorophenyl)-3-hydroxy-2H-pyrrol-5-one]
- hippocampal content of hyperphosphorylated PHF Tau (AT8 binding): retarded
